# Results taken from patent US7342018B2, “Urokinase inhibitors and uses thereof” (Wilex AG, priority 1998, dated 2008).
# pKi: −log10 of the molar value. Read-outs that look alike come from different tables or passages of the source.
# What was measured:
# [1] = tested on: human breast carcinoma cells; experiment: Fibrin matrix degradation assay (D dimer ELISA); type: cell-based; settings: different concentrations, 4 h (FIG. 2)
# Protocol: To study the potential of tumor cells for breaking down an extracellular matrix, a fibrin matrix degradation assay was developed and used. A greater proteolytic activity of the tumor cells leads to a higher concentration of fibrin degradation products in the matrix supernatant. The matrix degradation capacity corresponds to the concentration of fibrin degradation products which are determined by means of ELISA (D dimer).
# The fibrin gels were prepared in 24-well culture dishes from […] of fibrinogen (50 mg/ml) in PBS (pH 7.4), by 50 μl of thrombin (10 U/ml) and 50 μl of CaCl2 (150 mM) per well after incubation at 37° C. for 30 minutes. 2×10^5 breast carcinoma cells were seeded on said fibrin matrix in 1 ml of DMEM culture medium plus 10% fetal calf serum and 2 μg of Glu-plasminogen, and incubated for 4 h. The supernatant was then centrifuged, in order to remove the cells, and the fibrin degradation products were quantified by means of ELISA.
# Trypsin = biological target: T1, Trypsin (Bos taurus, UniProt P00760); experiment: In vitro inhibition of serine proteases: trypsin; type: biochemical
# T1 construct: gene PRSS1
# T1 sequence (P00760 24-246): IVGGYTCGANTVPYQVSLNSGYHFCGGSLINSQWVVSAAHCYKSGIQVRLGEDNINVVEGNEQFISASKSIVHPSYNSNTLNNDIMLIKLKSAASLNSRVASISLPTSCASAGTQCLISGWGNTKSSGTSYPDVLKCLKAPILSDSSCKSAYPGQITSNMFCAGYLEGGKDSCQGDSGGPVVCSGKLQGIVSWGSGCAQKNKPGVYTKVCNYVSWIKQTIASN
# Protocol: (§1) Ki values were determined according to Dixon by linear regression using a computer program.
# [2] = tested on: human breast carcinoma cells (MDA-BA-231); experiment: Human breast cancer cells in nude mice; type: in vivo, Balb/c nude mice; settings: 1.2 mg/kg i.p. twice a week, vs control (FIG. 6)
# Protocol: In order to test the in vivo efficacy of the inhibitor for inhibiting tumor growth of human breast carcinoma cells (MDA-BA-231), 6×10^6 cells were injected subcutaneously into the right flank of Balb/c nude mice (4-6 weeks old). The tumor cells were preincubated with the synthetic uPA inhibitor prior to inoculation. After 24 h, the mice were treated twice a week intraperitoneally with a dose of 1.2 mg/kg body weight as described under A). The tumor size was determined weekly by measuring the two largest diameters.
# Glandular kallikrein = Glandular kallikrein (Homo sapiens, UniProt P06870); experiment: In vitro inhibition of serine proteases: glandular kallikrein; type: biochemical
# Protocol: as §1
# Tryptase = Tryptase (Homo sapiens, UniProt Q15661); experiment: In vitro inhibition of serine proteases: tryptase; type: biochemical
# Protocol: (§2) To determine the inhibitory activity, 200 μl of Tris buffer (0.05 mol/l, containing the inhibitor, 0.154 mol/l NaCl, 5% ethanol pH 8.0), 25 μl of substrate (Pefachrome UK or Bz-βAla-Gly-Arg-pNA in H2O; Pentapharm Ltd., Basle, Switzerland) and 50 μl of sc-urokinase (Ribosepharm GmbH, Haan, Germany) were incubated at 25° C. After 3 min the reaction was stopped by adding 25 μl of acetic acid (50%), and the absorption at 405 nm was determined by means of a Microplate Reader (MR 5000, Dynatech, Denkendorf, Germany). Ki values were determined according to Dixon by linear regression using a computer program. The Ki values are the mean values of at least three determinations with a standard deviation of less than 25%.
# (§3) The inhibition activities of the enzymes used were determined according to the principle described in Example 3.
# [3] = biological target: Sc-tPA (single chain tPA) (Homo sapiens, UniProt P00750); experiment: In vitro inhibition of serine proteases: Sc-tPA; type: biochemical
# Protocol: as §2, §3
# Urokinase (sc-urokinase) = biological target: T2, Urokinase (sc-urokinase) (Homo sapiens, UniProt P00749); experiment: In vitro inhibition of urokinase (chromogenic substrate, Dixon Ki); type: biochemical
# T2 construct: purchased Ribosepharm GmbH, Haan, Germany
# Protocol: as §2
# rat breast tumor BN472 = experiment: BN472 rat breast tumor model, metastatic lung foci (Example 10); type: in vivo
# Text: In detail, the syngeneic transplantable spontaneously metastasizing rat breast tumor BN472 was used as a model. BN-472 transplantable rat mammary carcinoma used in this study was originally found spontaneously developed in a retired breeder female Brown Norway rat (Kort et al. J. Nat. Cancer Inst. 1984, 72: 7709-7713). The data presented here focus on the reduction in the number of metastatic lung foci as endpoint.
# FIG. 7 depicts the anti-metastatic efficacy of WX-UK1 in a setting implying surgical resection of the orthotopically growing tumor at a defined size and various time points of therapy onset relative to resection. After orthotopic implantation of BN472 fragment under the mammary fat pad the primary tumors were allowed to grow to a fixed palpable size (4×4 mm). The treatments groups (n=18) were allocated in a way to ensure homogeneous group composition with respect to tumor residence periods (range 3-14 d) prior group allocation. Primary tumors were surgically removed 4 days after having reached the fixed size. Onsets of treatments with 0.3 mg/kg s.c. daily were group specifically either on the day of reaching the fixed size (PO)mor four (P4), eight (P8), or twelve (P112) days thereafter. […] Starting on day 3 after tumor inoculation treatment groups (n=15) received WX-UK1 at weekly doses of […] either by daily application of 0.3 mg/kg (0.3 mg/kg o.d.), by application of 1 mg/kg twice per week (1 mg/kg t.w.) or by dosing 2 mg/kg once per week (2 mg/kg o.w.). The anti-metastatic efficacy previously established with daily treatments was retained when WX-UK1 was administered only twice or once per week at the same weekly dose.
# Treatment was initiated on day 3 after tumor inoculation. b) Groups of rats (n=8) were treated with 5-FU at 20 or 40 mg/kg i.v. once weekly either as mono-therapy or in combination with WX-UK1 i.p. treatments at 1 mg/kg twice weekly or with WX-UK1 alone. Indeed, WX-UK1 was efficacious at reducing lung foci numbers when combined with these standard therapeutics.
# Thrombin = Thrombin (Homo sapiens, UniProt P00734); experiment: In vitro inhibition of serine proteases: thrombin; type: biochemical
# Protocol: as §1
# Chain of Sc-tPA (single chain tPA) (P00750 36-562): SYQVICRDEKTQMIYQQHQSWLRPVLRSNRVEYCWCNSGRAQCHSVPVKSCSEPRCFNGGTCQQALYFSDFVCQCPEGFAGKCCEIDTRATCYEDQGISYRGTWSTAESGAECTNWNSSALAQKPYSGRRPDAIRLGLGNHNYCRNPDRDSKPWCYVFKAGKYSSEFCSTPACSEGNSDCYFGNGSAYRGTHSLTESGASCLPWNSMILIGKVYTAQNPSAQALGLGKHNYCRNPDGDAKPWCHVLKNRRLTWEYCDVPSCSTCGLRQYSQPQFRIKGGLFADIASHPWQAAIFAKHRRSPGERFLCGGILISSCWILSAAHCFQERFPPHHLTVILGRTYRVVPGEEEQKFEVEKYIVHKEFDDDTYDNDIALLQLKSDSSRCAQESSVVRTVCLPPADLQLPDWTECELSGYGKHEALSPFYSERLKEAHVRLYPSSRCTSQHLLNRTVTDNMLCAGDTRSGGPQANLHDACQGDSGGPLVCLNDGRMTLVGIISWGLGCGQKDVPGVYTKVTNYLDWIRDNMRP
# Chain of Glandular kallikrein (P06870 25-262): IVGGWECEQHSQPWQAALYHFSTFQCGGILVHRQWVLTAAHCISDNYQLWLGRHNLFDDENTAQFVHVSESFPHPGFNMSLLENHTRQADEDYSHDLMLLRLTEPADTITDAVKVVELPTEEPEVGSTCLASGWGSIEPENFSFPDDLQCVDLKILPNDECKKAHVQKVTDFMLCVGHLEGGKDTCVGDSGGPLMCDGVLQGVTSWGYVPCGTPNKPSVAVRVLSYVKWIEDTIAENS
# Chain of Tryptase (Q15661 31-275): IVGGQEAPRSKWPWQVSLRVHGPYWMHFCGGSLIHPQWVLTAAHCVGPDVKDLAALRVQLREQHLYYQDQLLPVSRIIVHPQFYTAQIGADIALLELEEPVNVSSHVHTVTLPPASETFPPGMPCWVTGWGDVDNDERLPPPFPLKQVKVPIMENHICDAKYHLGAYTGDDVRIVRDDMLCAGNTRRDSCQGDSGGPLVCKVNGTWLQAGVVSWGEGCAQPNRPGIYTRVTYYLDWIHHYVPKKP
compound,measurement,setting,value
"CCOC(=O)N1CCN(C(=O)[C@H](Cc2cccc(C(=N)N)c2)NS(=O)(=O)c2c(C(C)C)cc(C(C)C)cc2C(C)C)CC1.Cl [uPA inhibitor, Nα-2,4,6-Triisopropylphenylsulfonyl-(L)-3-amidinophenylalanine 4-ethoxycarbonylpiperazide hydrochloride]",inhibition of fibrin matrix degradation by breast carcinoma cells,[1],significant inhibition
same,pKi,Trypsin,7.43
same,tumor volume increase,[2],significantly more slowly
same,pKi,Glandular kallikrein,< 3.00
same,pKi,Tryptase,5.20
same,pKi,[3],5.31
same,pKi,"Urokinase (sc-urokinase); in vitro inhibition of urokinase, 25° C, pH 8.0, 5% ethanol, read-out: Ki",6.39
same,pKi,Urokinase (sc-urokinase); read-out: Ki Urokinase,6.39
same,anti-metastatic activity with surgical resection of the primary tumor,"rat breast tumor BN472; 0.3 mg/kg s.c. daily, various onsets relative to resection (FIG. 7)",Anti-metastatic activity was obvious
same,anti-metastatic efficacy at prolonged dosing intervals,rat breast tumor BN472; 1 mg/kg twice per week or 2 mg/kg once per week vs 0.3 mg/kg daily (FIG. 8),retained
same,reducing lung foci numbers in combination,rat breast tumor BN472; combined with epirubicin or 5-FU (FIG. 9),efficacious
same,pKi,Thrombin,6.31
